In patent US20100129434A1, “COMPOSITIONS AND METHODS FOR THE TREATMENT OF MUCORMYCOSIS AND OTHER FUNGAL DISEASES” (priority 2006, published 2010):
Values after ≈ are worked out from the molar mass of the structure shown.

Columns and labels:
R. oryzae [1] = assay: Survival of guinea pigs infected with R. oryzae and treated with iron chelators; assay type: in vivo; conditions: guinea pigs infected with R. oryzae
Excerpt: The role of iron metabolism in the pathogenesis of mucormycosis allows the possibility of utilizing effective iron chelators for antifungal therapy, including as an adjunctive antifungal therapy.

R. oryzae [2] = assay: Survival of diabetic ketoacidotic (DKA) mice infected with R. oryzae; assay type: in vivo, BALB/c male mice; conditions: for survival compared to placebo: 4.3×10^3 spores; for efficacy of Def on administration of FeCl3: Def 100 mg/kg qod plus FeCl3 60 mg/kg iv
Method: (§1) Briefly, for in vivo infection, BALB/c male mice (>20 g) were rendered diabetic with a single i.p. injection of 210 mg/kg streptozotocin in 0.2 ml citrate buffer 10 days prior to fungal challenge. […] Mice were infected through the tail vein with the appropriate inocula of R. oryzae. To confirm the inocula, dilutions were streaked on PDA plates and colonies were counted following a 24 h incubation period at room temperature. The primary efficacy endpoint was time to death. As a secondary endpoint, brain fungal burden (the primary target organ) was determined by homogenization by rolling a pipette on organs placed in Whirl-Pak bags (Nasco, Fort Atkinson, Wis.) containing 2 ml saline. The homogenate was serially diluted in 0.85% saline and then quantitatively cultured on PDA. Values were expressed as log 10 cfu g^−1 tissue. All procedures involving mice were approved by the institutional animal use and care committee, following the National Institutes of Health guidelines for animal housing and care.
Deferiprone (Apotex Research Inc.) was dissolved in iron-free water and administered intraperitoneally at 50, 100, or 200 mg/kg qd or qod (every other day). Treatment was begun 24 h post infection and continued for a total of 4 doses. Control groups were treated with the diluent, 5% dextrose water.
Deferiprone is known to form molecular complexes with ferric iron (^3+Fe) in a 1:3 ratio of iron to deferiprone. Based on the known molecular weights of ferric chloride (FeCl3, molecular weight 162.22 g/mol) and deferiprone (molecular weight 139 g/mol), a 60 mg/kg dose of FeCl3 was calculated to result in a significant excess of ^3+Fe vs. a 100 mg/kg dose of deferiprone given to an 18 g mouse: ^3+Fe moles=(0.060 g/kg*0.018 kg [mouse weight]/162.22 g/mol)=6.5×10^−6 mol vs. deferiprone moles=(0.1 g/kg*0.018 kg [mouse weight]/139 g/mol)=1.3×10^−5 mol Ratio=1:2 moles of ^3+Fe to deferiprone, which is more than that required to achieve a saturating 1:3 ratio.
Statistical analysis was performed using the nonparametric log rank test was used to determine differences in survival times of the mice. Differences in tissue fungal burdens in the infected organs were compared by the nonparametric Steel test for multiple comparisons. P values of <0.05 were considered significant.
Deferasirox (Novartis Pharmaceuticals, Basel, Switzerland) was suspended in 0.5% hydroxypropylcellulose (Klucel) and administered by oral gavage at 1, 3, or 10 mg/kg […] (qd) or every other day (qod). Treatment was begun 24 h post infection and continued for a total of 5 or 7 doses. Control groups were treated with the diluent, 5% dextrose water and 0.5% Klucel. In some experiments, a saturating dose of free iron was administered with deferasirox. Deferasirox is known to form molecular complexes with ferric iron (^3+Fe) in a 1:2 ratio of iron to deferasirox. Based on the known molecular weights of ferric chloride (FeCl3, molecular weight 162.22 g/mol) and deferasirox (molecular weight 373.4 g/mol), a 2.8 mg/kg dose of FeCl3 was calculated to result in a significant excess of ^3+Fe vs. a 10 mg/kg dose of deferasirox given to an 18 g mouse: ^3+Fe moles=(0.0028 g/kg*0.018 kg [mouse weight]/162.22 g/mol)=3×10^−7 mol vs. deferasirox moles=(0.01 g/kg*0.018 kg [mouse weight]/373.4 g/mol)=5×10^−7 mol Ratio=1:1.7 moles of ^3+Fe to deferasirox, which is more than that required to achieve a saturating 1:2 ratio.
The nonparametric log rank test was used to determine differences in survival times of the mice. Differences in tissue fungal burdens, splenic lymphocyte frequencies, and whole organ cytokines in the infected organs were compared by the Mann Whitney U test. P values of <0.05 were considered significant.

R. oryzae [3] = assay: Survival of neutropenic mice infected with R. oryzae; assay type: in vivo; conditions: prophylaxis from day −1, Def qod, LAmB qd or both, four doses, placebo 0%
Method: (§2) For in vivo infection, BALB/c male mice (>20 g) were rendered diabetic with a single i.p. injection of 210 mg/kg streptozotocin in 0.2 ml citrate buffer 10 days prior to fungal challenge. […] For neutropenic mouse model, mice were injected with a single i.p. dose of 200 mg/kg cyclolphosphamide (Bristol Myer Squibb) 2 days prior to infection with R. oryzae. […] Mice were infected through the tail vein with the appropriate inocula of R. oryzae. To confirm the inocula, dilutions were streaked on PDA plates containing 0.1% triton and colonies were counted following a 24 h incubation period at 37° C. The primary efficacy endpoint was time to death. As a secondary endpoint, brain fungal burden (the primary target organ) was determined by homogenization by rolling a pipette on organs placed in Whirl-Pak™ bags (Nasco®, Fort Atkinson, Wis.) containing 1 ml saline. The homogenate was serially diluted in 0.85% saline and then quantitatively cultured on PDA. Values were expressed as log10 cfu g−1 tissue. Finally, for histopathological analysis, infected organs were collected from mice and fixed in 10% zinc formalin. Fixed tissues were embedded in paraffin, and […] sections were stained with haematoxylin and eosin for light microscopy examination. All procedures involving mice were approved by the institutional animal use and care committee, following the National Institutes of Health guidelines for animal housing and care.
Two days later, mice were infected via the tail-vein with 2.7×10^3 spores of R. oryzae 99-892.

R. oryzae [4] = assay: Tissue fungal burden of DKA mice infected with R. oryzae; assay type: in vivo, BALB/c male mice; conditions: 3.8×10^3 spores, two doses, brains harvested about 54 h post-infection, P<0.036
Method: as §1, §2

R. oryzae 99-880 = assay: MIC and MFC of deferiprone and deferoxamine against R. oryzae; assay type: cell-based, Rhizopus oryzae; conditions: for MFC / MIC: R. oryzae
Method: Initially, the in vitro activity of deferiprone against R. oryzae was assessed in this study. Briefly, R. oryzae 99-880 was isolated from a brain abscess of a diabetic patient. The organism was grown on potato dextrose agar (PDA) for 3 days at 37° C. In some experiments, R oryzae was starved for iron by growth on PDA in the presence of 1 mM of ascorbic acid and ferrozine. The sporangiospores were collected in endotoxin free PBS containing 0.01% Tween 80, washed with PBS then counted with hemacytometer to prepare the final inocula. For susceptibility testing, the minimum inhibitory concentration (MIC) and minimum fungicidal concentration (MFC) were determined for Def and deferoxamine by the method of Espinel-Ingroff (J Clin Microbiol 39:954 (2001)).

invasive mucormycosis = conditions: patients treated with deferoxamine; cited from earlier work
[5] = Rhizopus arrhizus, 99880, 24 h, 24 h
[6] = Rhizopus arrhizus, 99880, 48 h, 48 h

CCc1c(O)c(=O)ccn1CC [CP94]
Mean (±SD) Survival Time (R. oryzae [1]): 8.7 ± 1.0 days

Cc1c(O)c(=O)ccn1C [Deferiprone, 1,2 dimethyl-3-hydroxypyrid-4-1]
28-day survival (R. oryzae [2]; DKA mice infected with R. oryzae, treatment from 24 h post infection, 4 doses, LAmB 15 mg/kg qd iv, Def 100 mg/kg qod ip, placebo 0%): 30% | survival compared to placebo (R. oryzae [2]; DKA mice, 50 mg/kg qd or qod): did not improve survival | survival compared to placebo (R. oryzae [2]; DKA mice, 100 mg/kg qd or 200 mg/kg qd or qod): did not improve survival | survival compared to placebo (R. oryzae [2]; DKA mice, 100 mg/kg qod, 4 doses from 24 h post infection, P=0.027): improved survival | efficacy of Def on administration of FeCl3 (R. oryzae [2]; DKA mice): completely abrogated | efficacy of Def on administration of FeCl3 (R. oryzae [2]; DKA mice, listed as Def): abrogated | 28-day survival compared to placebo (R. oryzae [2]; DKA mice, LAmB 15 mg/kg qd or deferiprone 100 mg/kg qod, P<0.003 Log Rank): improved 28-day survival | survival (R. oryzae [3]): 22% | brain fungal burden compared to placebo (R. oryzae [4]): reduced brain fungal burden | Mean (±SD) Survival Time (R. oryzae [1]): 16.2 ± 4.0 days | static or cidal effect against R. oryzae (R. oryzae 99-880; 24 h of incubation): static | static or cidal effect against R. oryzae (R. oryzae 99-880; 24 h of incubation, listed as deferiprone): static effect | static or cidal effect against R. oryzae (R. oryzae 99-880; 48 h of incubation): cidality | static or cidal effect against R. oryzae (R. oryzae 99-880; 48 h of incubation, listed as deferiprone): cidal effect | MFC (R. oryzae 99-880; 48 h): 6.25 µg/mL (≈ 44.9 µM) | MIC (R. oryzae 99-880; [5]): 3.12 µg/mL (≈ 22.4 µM) | MIC (R. oryzae 99-880; [6]): 6.25 µg/mL (≈ 44.9 µM)

CC(=O)N(O)CCCCCNC(=O)CCC(=O)N(O)CCCCCNC(=O)CCC(=O)N(O)CCCCCN [Deferoxamine]
mortality of invasive mucormycosis (invasive mucormycosis): > 80% | Mean (±SD) Survival Time (R. oryzae [1]): 4.8 ± 1.1 days | MFC (R. oryzae 99-880; 24 h, listed as deferoxamine): > 100 µg/mL | MFC (R. oryzae 99-880; 48 h, listed as deferoxamine): > 100 µg/mL | MIC (R. oryzae 99-880; [5]): > 100 µg/mL | MIC (R. oryzae 99-880; [6]): > 100 µg/mL
